For assay [1], the system named is CAG myeloma cells. In words: Cell spreading / attachment assay of CAG myeloma cells on FN or VCAM-1. Particulars: on FN, 2 hr; for HPSE^high cell adhesion / HPSE^high cell spreading: 0, 3, 10 and 30 μM peptide; for HPSE^low cell adhesion: high concentrations (30 μM). It is filed as cell-based, human.
Assay [2] concerns CAG myeloma cells. Described as above. It is filed as cell-based, human. Particulars: 0.3 μM peptide; for induction of HPSE^low cell spreading by S1ED peptides: on VCAM-1. The protocol: (§1) Nitrocellulose-coated slides were coated for 2 hr at 37° C. with 40 μg/ml FN (kindly provided by Dr. Donna Peters, University of Wisconsin-Madison) or 5 μg/ml recombinant VCAM-1/Fc chimera (R&D Systems) in calcium and magnesium-free PBS (CMF-PBS; 135 mM NaCl, 2.7 mM KCl, 10.2 mM Na2HPO4-7H20 and 1.75 mM KH2PO4, pH7.4). Slides were blocked for 1 hr at 37° C. with RPMI 1640 containing 1% heat-denatured BSA (plating medium). Cells in plating medium were allowed to attach and spread for 2.5 hr at 37° C. Slides were fixed in 4% EM grade paraformaldehyde (Electron Microscopy Sciences) in CMF-PBS and labeled for 30 min in 0.13 μM rhodamine phalloidin (Invitrogen) in CMF-PBS. Coverslips were mounted in non-fluorescing mounting medium (Immumount; Thermo Shandon) and allowed to dry. All images were acquired with a Nikon Microphot FX microscope using a 20× objective (Nikon; Ex 541-551, DM 580, Barrier 590), Photometric CoolSnap ES camera, and version 7.7.3.0 Metamorph© Imaging software (Molecular Devices). All images represent results from triplicate wells and at least three independent experiments.

A further assay concerns the target T1, VLA-4 (Homo sapiens, UniProt P05556+P13612).
T1 construct: the α4-integrin (VLA-4), which is expressed on myeloma cells; endogenous in cells; host or cells: CAG human myeloma cells (HPSE^low), whole-cell lysate
In words: GST pull down assay: capture of VLA-4 by GST-S1ED. Type of assay: binding. The conditions noted are these: HPSE^low cell lysates; peptide 30 M [sic]. How it is done:
FIGS. 6A-G. Peptides derived from the active site in Sdc1 activate or inhibit adhesion and invasion. (FIG. 6A) Transwell migration assays towards FN (for 16 hrs) were performed for HPSE low or high cells in the presence of 0, 0.3, 3, and 30 μM of S1ED^210-240. Cells migrating to the bottom side of the filter were counted from five random images for each treatment. (FIG. 6B) The sequence of S1ED210-240 is shown (SEQ ID NO: 3), as well as […] truncation mutants of the peptide (SEQ ID NOs: 5, 2, 4 and 7). Amino acids shown in red appear necessary for the spreading and invasive activity. (FIG. 6C) Images of HPSE^low and HPSE^high cells plated on FN for 2 hr. (FIG. 6D) HPSE^low cells were treated with 0, 0.3, 3, 10 and 30 μM of S1ED^210-236, S1ED^210-233, or S1ED^214-240, plated on FN for 2 hr, fixed and stained with fluorescent phalloidin. Cells from five random images were quantified for cell attachment and cell spreading. (FIG. 6E) HPSE^high cells were treated with 0, 3, 10, and 30 μM of S1ED^210-236, S1ED^210-233, and S1ED^214-240, plated on FN for 2 hr, then fixed, imaged and quantified as in FIG. 6D. (FIG. 6F) Transwell migration assays towards FN (for 16 hr) were performed for HPSE^low or HPSE^high cells in the presence of 30 μM of S1ED^210-236, S1ED^210-233, S1ED^214-240 and Vandetanib. (FIG. 6G) HPSE^low cell lysates were incubated overnight with glutathione beads coated with GST or GST-S1ED in the absence or presence of 30 μM of S1ED^210-236, S1ED^210-233, and S1ED^214-240. Capture of VLA-4 or VEGFR2 was detected by immunoblotting. Sequences in FIG. 6B are 210-240 (SEQ ID NO: 3), 210-236 (SEQ ID NO: 2), 210-233 (SEQ ID NO: 4), 214-240 (SEQ ID NO: 5) and 214-236 (SEQ ID NO: 7).
CAG cells were washed with CMF-PBS and then lysed for 20 min on ice in lysis buffer. Cell debris was removed by centrifugation at 13000 rpm for 20 min at 4° C. Whole cell lysates were then incubated at 4° C. overnight with either 3 μM GST or 3 μM GST-S1ED in the absence or presence of 1 μM, 3 μM, and 10 μM S1ED^210-240 peptide. GST or GST-S1ED was captured by addition of glutathione Sepharose and the beads were washed with ice-cold lysis buffer and CMF-PBS, prior to addition of SDS-PAGE sample buffer and analyszed by electrophoresis and western blotting as described previously.

The test system of assay [3] is P3x63Ag8 mouse myeloma cells. In words: Invasion of P3x63Ag8 myeloma cells through FN-coated filters. The conditions noted are these: 16 hr. It is filed as cell-based. How it is done:
(§2) FIG. 7A-B. S1ED^214-236, specific for VEGFR2 coupling to VLA-4, blocks myeloma cell invasion but not adhesion. (FIG. 7A) P3x63Ag8 mouse myeloma cells are plating on the VLA-4 ligand FN in the presence or absence of 30 uM S1ED^210-233 (SEQ ID No: 4) or S1ED^214-236 (SEQ ID No: 7) for 2.5 hr. (FIG. 7B) P3x63Ag8 myeloma cells are plated on FN-coated filters in the presence of HPSE inhibitor OGT2115, VLA-4 blocking antibody P1H4, VEGFR2 inhibitor Vandetanib or S1ED^210-233 or S1ED^214-236 and allowed to migrate through the filter for 16 hr. Small black dots are the pores in the filter.
The bottom chambers of Transwell filter chambers (8 μm pores; Corning) were coated with 40 μg/ml of FN. Cells (5×10^5 in 0.2 ml plating medium) were placed in the upper chamber and incubated for 16 hr at 37° C. in the CO2 incubator. After incubation, cells in the upper chamber were removed and cells on the bottom side of the filter were fixed in 4% paraformaldehyde (PFA) and stained with 0.1% Crystal Violet before imaging. Cells from at least five random fields were counted.

The test system of assay [4] is P3x63Ag8 mouse myeloma cells. In words: Adhesion of P3x63Ag8 myeloma cells to FN. Type of assay: cell-based. The conditions noted are these: 30 uM peptide, 2.5 hr. How it is done: as §2
as §1, with “All images were acquired with a Nikon Microphot FX microscope using a 20× objective (Nikon; Ex 541-551, DM 580, Barrier 590), Photometric CoolSnap ES camera, and version 7.7.3.0 Metamorph© Imaging software (Molecular Devices). All images represent results from triplicate wells and at least three independent experiments.” left out

No end group written: not given here.

T1 sequence (P13612 34-1032): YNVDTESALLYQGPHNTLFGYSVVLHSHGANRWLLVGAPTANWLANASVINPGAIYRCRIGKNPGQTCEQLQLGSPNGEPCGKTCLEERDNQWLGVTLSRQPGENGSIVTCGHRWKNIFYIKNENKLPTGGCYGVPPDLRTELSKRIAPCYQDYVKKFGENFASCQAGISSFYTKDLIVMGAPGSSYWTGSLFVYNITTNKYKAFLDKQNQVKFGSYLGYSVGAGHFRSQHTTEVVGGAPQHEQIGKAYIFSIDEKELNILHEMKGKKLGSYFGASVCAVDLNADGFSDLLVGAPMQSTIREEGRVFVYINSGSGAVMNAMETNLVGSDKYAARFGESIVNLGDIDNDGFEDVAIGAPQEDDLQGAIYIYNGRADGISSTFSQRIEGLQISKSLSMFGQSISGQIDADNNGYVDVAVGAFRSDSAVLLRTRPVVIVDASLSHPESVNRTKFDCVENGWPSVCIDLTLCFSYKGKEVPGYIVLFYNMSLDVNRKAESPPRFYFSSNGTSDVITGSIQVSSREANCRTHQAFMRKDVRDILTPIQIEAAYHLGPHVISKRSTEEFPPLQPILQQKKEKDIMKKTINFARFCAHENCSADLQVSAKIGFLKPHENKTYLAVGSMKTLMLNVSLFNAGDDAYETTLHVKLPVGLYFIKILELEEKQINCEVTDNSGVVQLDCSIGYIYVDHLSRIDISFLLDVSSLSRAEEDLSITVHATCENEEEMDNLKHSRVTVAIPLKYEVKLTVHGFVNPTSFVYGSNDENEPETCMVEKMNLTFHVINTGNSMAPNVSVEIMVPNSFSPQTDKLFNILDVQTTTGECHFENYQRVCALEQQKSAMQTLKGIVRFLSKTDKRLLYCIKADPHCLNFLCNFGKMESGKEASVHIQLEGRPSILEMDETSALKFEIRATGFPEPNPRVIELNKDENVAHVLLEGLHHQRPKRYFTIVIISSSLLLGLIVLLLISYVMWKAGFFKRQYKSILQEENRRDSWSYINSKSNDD
T1 sequence (P05556 21-798): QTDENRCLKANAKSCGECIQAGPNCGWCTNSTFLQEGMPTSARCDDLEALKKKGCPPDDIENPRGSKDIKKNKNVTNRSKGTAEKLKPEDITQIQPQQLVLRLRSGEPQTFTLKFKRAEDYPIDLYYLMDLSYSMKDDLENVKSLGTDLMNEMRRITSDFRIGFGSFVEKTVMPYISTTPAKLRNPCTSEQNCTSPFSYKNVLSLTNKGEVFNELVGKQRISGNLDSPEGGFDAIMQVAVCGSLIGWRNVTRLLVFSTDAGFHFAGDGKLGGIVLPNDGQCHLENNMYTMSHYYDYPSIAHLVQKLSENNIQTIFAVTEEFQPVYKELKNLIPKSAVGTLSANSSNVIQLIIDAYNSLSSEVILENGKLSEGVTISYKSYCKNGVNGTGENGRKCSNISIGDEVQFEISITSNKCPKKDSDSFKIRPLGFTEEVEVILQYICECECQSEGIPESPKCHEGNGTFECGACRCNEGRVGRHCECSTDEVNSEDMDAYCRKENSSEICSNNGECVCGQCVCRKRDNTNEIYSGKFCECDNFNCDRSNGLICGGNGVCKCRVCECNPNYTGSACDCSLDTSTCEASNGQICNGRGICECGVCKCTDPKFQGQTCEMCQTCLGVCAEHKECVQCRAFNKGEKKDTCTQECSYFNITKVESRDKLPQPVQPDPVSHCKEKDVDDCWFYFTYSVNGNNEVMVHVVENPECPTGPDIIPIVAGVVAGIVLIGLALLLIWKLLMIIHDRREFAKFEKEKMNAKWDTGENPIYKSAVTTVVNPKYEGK

Consider “DFTFETSGENTAVVAVEPDRRNQSPVD [S1ED^210-236]”, for which the “HPSE^low cell spreading” value with CAG myeloma cells [1] (0, 0.3, 3, 10 and 30 μM peptide) is “induces HPSE^low cell spreading equal to that observed with S1ED^210-240”. Moreover, in the assay on CAG myeloma cells [1], the “HPSE^high cell adhesion” value is reported as “induce cell detachment”, the “HPSE^high cell spreading” value is given as “block cell spreading when added at increasing concentrations” and the “HPSE^low cell adhesion” value is reported as “block cell adhesion”. Besides, in the assay on CAG myeloma cells [2] (on FN), the “rescue of HPSE^high spreading blocked by MMP9 blocking antibody” value is listed as “rescued spreading in the presence of MMP9 inhibitor”. Also, in the assay with CAG myeloma cells [2] (on FN, 1 μM Vandetanib), the “rescue of HPSE^high spreading blocked by Vandetanib” value was “fails to rescue spreading blocked by Vandetanib”. Further, in the assay with CAG myeloma cells [2], the “induction of HPSE^low cell spreading by S1ED peptides” value is “retains full activity”. Moreover, the “competition for capture of VLA-4 by GST-S1ED” value on VLA-4 is given as “effectively blocks capture of both receptors”.

As to “S1ED^210-233: syndecan-1 ectodomain peptide, residues 210-233 (SEQ ID NO: 4) (DFTFETSGENTAVVAVEPDRRNQS)”, in the assay on CAG myeloma cells [1], the “HPSE^high cell adhesion” value is given as “induce cell detachment”, the “HPSE^high cell spreading” value is on record as “block cell spreading when added at increasing concentrations” and the “HPSE^low cell adhesion” value is “block cell adhesion”. Further, in assay [3], the “invasion / migration of P3X cells through FN-coated filters” value was “blocked by either peptide”. In addition, in assay [4], the “adhesion of P3X cells to FN” value was “blocks the adhesion of the myeloma cells to FN”. Also, the “induction of HPSE^low cell spreading by S1ED peptides” value in the assay with CAG myeloma cells [2] is “do not”.
